Source: the Deep4Chem optical property database
Values belong to the molecule of their own block, whether it stands above or below them.

Experiment: solvent given as SMILES

emission maximum (in ClC(Cl)Cl): 740 nm
Compound: Cc1ccc(/C2=c3\cc/c(o3)=C(\c3ccc(C)cc3)c3ccc([nH]3)-c3ccc4n3[P-](=O)(=O)[N+]3=C(C=CC3=C4c3ccc[nH]3)c3ccc2[nH]3)cc1

emission maximum (in O): 522 nm
Compound: CC[n+]1c(-c2ccccc2)c2cc(NC(=O)N[C@H]3C[C@@H]([NH3+])[C@H](O)[C@@H](O)[C@@H]3O)ccc2c2ccc(NC(=O)N[C@@H]3C[C@H]([NH3+])[C@@H](O)[C@@H](O)[C@H]3O)cc21

emission maximum (in C1CCCCC1): 309 nm
Compound: CCCC1(CCC)c2ccccc2-c2ccccc21

emission maximum (in CCO): 500 nm
Compound: CN1c2cc3nc4cc(Br)c(Br)cc4nc3cc2N(C)C1(C)C

emission maximum (in CO): 540 nm
emission maximum (in CS(C)=O): 510 nm
emission maximum (in ClC(Cl)Cl): 500 nm
emission maximum (in c1ccccc1): 470 nm
Compound: CCC1=C(C)C(=O)n2c1cc1c(CCC(=O)O)c(C)c(C)n1c2=O

Compound: C(=C\c1ccc(-n2c3ccccc3c3ccccc32)cc1)/c1ccc(-c2ccc(/C=C/c3ccc(-n4c5ccccc5c5ccccc54)cc3)cc2)cc1
emission maximum (in Cc1ccccc1): 420 nm
emission maximum (in c1ccc2c(c1)c1ccccc1n2-c1ccc(-c2ccc(-n3c4ccccc4c4ccccc43)cc2)cc1): 438 nm

emission maximum (in C1CCCCC1): 454 nm
emission maximum (in CC#N): 517 nm
Compound: CC(C)c1ccc(/C=C/c2nc3ccc(N(C)C)cc3s2)cc1

emission maximum (in CCO): 447 nm
Compound: CC(C)(C)OC(=O)NC(Cc1ccccc1)C(=O)OCc1ccc2c3cccc4cccc(c5cccc1c52)c43 (centres undefined)

emission maximum (in CC#N): 518 nm
emission maximum (in ClCCl): 493 nm
Compound: Cc1cc(O)c(C(=O)/C=C/c2ccc(O)c(O)c2)c(=O)o1

emission maximum (in ClCCl): 600 nm
Compound: COc1ccc2cc(/C=C/C3=[O+][B-](F)(F)OC(/C=C/c4ccc5cc(OC)ccc5c4)=C3c3ccccc3)ccc2c1

emission maximum (in ClCCl): 496 nm
Compound: O=P1(c2ccccc2)c2cccc3ccc4ccc1n4c23 (centres undefined)

emission maximum (in CCO): 508 nm
Compound: CC1(C)Nc2cc3nc4cc(Br)c(Br)cc4nc3cc2N1

Compound: COc1ccc(-c2ccc3c(c2)c2cc(-c4ccc(OC)cc4)ccc2n3-c2ccc(C(=O)c3ccc4sc5ccccc5c4c3)nc2)cc1
emission maximum (in Cc1ccccc1): 487.2 nm
emission maximum (in c1cc(-n2c3ccccc3c3ccccc32)cc(-n2c3ccccc3c3ccccc32)c1): 493 nm

emission maximum (in CC#N): 455 nm
emission maximum (in CO): 453 nm
emission maximum (in O): 466 nm
Compound: CSc1ccc2c(c1)N(CCCN1CCN(C)CN1C)c1ccccc1S2

emission maximum (in ClCCl): 424 nm
Compound: COc1ccc(-c2ccc3c(c2)[Si](C)(C)c2cc(-c4ccc(OC)cc4)ccc2C=C3)cc1

emission maximum (in C1COCCO1): 576 nm
emission maximum (in CS(C)=O): 624 nm
Compound: O=C1/C(=C2\Sc3ccc(S(=O)(=O)Cl)cc3C2=O)Sc2ccc(S(=O)(=O)Cl)cc21

emission maximum (in CS(C)=O): 662 nm
Compound: Clc1ccc(-c2c3nc(c(-c4ccc(Cl)cc4)c4ccc([nH]4)c(-c4ccc(Cl)cc4)c4nc(c(-c5ccc(Cl)cc5)c5ccc2[nH]5)C=C4N2CCOCC2)C=C3)cc1

Compound: CCCCCCc1ccc(-n2c3[n+](c4c5ccccc5c5ccccc5c42)[B-](C)(C)c2cc(-n4c5ccccc5c5ccccc54)ccc2-3)cc1
emission maximum (in C1CCOC1): 409 nm
emission maximum (in CC#N): 409 nm
emission maximum (in Cc1ccccc1): 410 nm
emission maximum (in ClCCl): 408 nm

Compound: c1ccc(-c2ccc(-c3ccccc3)cc2)cc1
emission maximum (in C1CCOC1): 340 nm
emission maximum (in C1COCCO1): 342 nm
emission maximum (in CCO): 375 nm

Compound: COC(=O)C(Cc1ccc2oc(-c3ccc(Nc4ccccc4)cc3)nc2c1)NC(=O)OC(C)(C)C (centres undefined)
emission maximum (in C1CCCCC1): 382 nm
emission maximum (in C1CCOC1): 419.01 nm
emission maximum (in C1COCCO1): 410.51 nm
emission maximum (in CC1CCCO1): 425.01 nm
emission maximum (in CC1COC(=O)O1): 457.5 nm
emission maximum (in CC#N): 452 nm
emission maximum (in CC(C)=O): 439.5 nm
emission maximum (in CC(C)CC(C)(C)C): 384 nm
emission maximum (in CC(C)CO): 438 nm
emission maximum (in CC(C)O): 440.51 nm
emission maximum (in CC(C)OC(C)C): 426 nm
emission maximum (in CC(O)CO): 438 nm
emission maximum (in CCC(C)CC): 382.98 nm
emission maximum (in CCCCC): 382 nm
emission maximum (in CCCCCC): 383.49 nm
emission maximum (in CCCCCCCCC): 384.5 nm
emission maximum (in CCCCCCCCCC): 385 nm
emission maximum (in CCCCCCCO): 434.5 nm
emission maximum (in CCCCCCO): 429 nm
emission maximum (in CCCCCO): 424 nm
emission maximum (in CCCCO): 441.5 nm
emission maximum (in CCO): 453.49 nm
emission maximum (in CCOC(C)=O): 412 nm
emission maximum (in CCOCC): 409.5 nm
emission maximum (in CN(C)C=O): 447.51 nm
emission maximum (in CO): 457 nm
emission maximum (in COCCOC): 440.01 nm
emission maximum (in CS(C)=O): 459.5 nm
emission maximum (in Cc1ccccc1): 401.49 nm
emission maximum (in Cc1ccccc1C): 401.49 nm
emission maximum (in ClC(Cl)Cl): 420.01 nm
emission maximum (in ClCCl): 415.51 nm
emission maximum (in NC=O): 447.01 nm
emission maximum (in OC1CCCCC1): 440.01 nm
emission maximum (in OCCO): 443.01 nm
emission maximum (in c1ccccc1): 398.5 nm

emission maximum (in ClC(Cl)Cl): 583 nm
Compound: Cc1cc2c(o1)=CC1=Cc3cc4oc(C)cc4n3[B-](F)(F)[N+]=21

emission maximum (in CCO): 445 nm
Compound: Cc1ccc(C(=O)OCc2ccc3c4cccc5cccc(c6cccc2c63)c54)cc1

emission maximum (in ClCCl): 583 nm
Compound: COc1ccccc1C1=[N+]2C(=C(c3ccccc3)c3c4c(c(-c5ccccc5OC)n3[B-]2(F)F)C2CCC4CC2)C2=C1C1CCC2CC1

emission maximum (in C1CCOC1): 502 nm
Compound: O=C(c1ccc(/C(=C(/c2ccccc2)c2ccc(C(=O)c3ccc(-n4c5ccccc5c5ccccc54)cc3)cc2)c2ccccc2)cc1)c1ccc(-n2c3ccccc3c3ccccc32)cc1

emission maximum (in ClCCl): 515 nm
Compound: COc1ccc(/C=C/C2=C3CCc4ccccc4C3=[O+][B-](F)(F)O2)cc1

emission maximum (in CCO): 537 nm
Compound: Nc1cc2nc3cc(F)c(F)cc3nc2cc1N

emission maximum (in ClCCl): 623 nm
Compound: F[B-]12Oc3ccccc3-c3c4[n+]5c(c([n+]31)-c1ccccc1O2)-c1ccccc1O[B-]5(F)Oc1ccccc1-4

Compound: O=c1[nH]c2ccccc2[nH]1
emission maximum (in C1CCOC1): 315 nm
emission maximum (in CC#N): 313.01 nm
emission maximum (in CC(C)=O): 307 nm
emission maximum (in CCCCCCC): 297 nm
emission maximum (in CCCCCl): 302 nm
emission maximum (in CCCCO): 311 nm
emission maximum (in CCCO): 310 nm
emission maximum (in CCCOCCC): 310 nm
emission maximum (in CCO): 310 nm

emission maximum (in ClCCl): 444 nm
Compound: CC1(C)C2=C(c3ccccc31)S(=O)(=O)c1ccccc12

Compound: C(#Cc1cccc(C#Cc2ccc(-n3c4ccccc4c4ccccc43)cc2)c1)c1ccc(-n2c3ccccc3c3ccccc32)cc1
emission maximum (in CC#N): 425 nm
emission maximum (in CCCCC): 366 nm
emission maximum (in CO): 412 nm
emission maximum (in Cc1ccccc1): 374 nm
emission maximum (in ClC(Cl)Cl): 368 nm
emission maximum (in ClCCl): 394 nm

Compound: CC(C)[Si]1(C(C)C)c2cc(C#N)ccc2-c2ccc(N(C)C)cc21
emission maximum (in C1CCCCC1): 410 nm
emission maximum (in CC#N): 464 nm
emission maximum (in CCO): 456 nm
emission maximum (in CCOCC): 423 nm
emission maximum (in CS(C)=O): 473 nm
emission maximum (in ClCCl): 442 nm
emission maximum (in c1ccccc1): 422 nm

emission maximum (in CCCCCC): 397 nm
emission maximum (in CCCCCCCCO): 410 nm
emission maximum (in CCCCO): 411 nm
emission maximum (in CCCO): 410 nm
emission maximum (in CCO): 412 nm
emission maximum (in CCOC(C)=O): 404 nm
emission maximum (in CN(C)C=O): 411 nm
emission maximum (in CO): 413 nm
emission maximum (in ClC(Cl)Cl): 409 nm
Compound: COc1ccc2cc(-c3ccc(C(F)(F)F)cc3)oc(=O)c2c1

emission maximum (in ClCCl): 465 nm
Compound: COc1cc(-c2cnc(-c3ccncc3)o2)cc(OC)c1OC

emission maximum (in CCO): 417 nm
Compound: COC(=O)C(CCCCNC(=O)CCNc1cccc2ccccc12)NC(C)=O (centres undefined)

emission maximum (in C1CCOC1): 482 nm
Compound: c1cc2ccc3cc4[nH]c(-c5cc6c(cc7ccc8cccc9ccc6c7c89)[nH]5)cc4c4ccc(c1)c2c34

Compound: c1ccc(-c2nc(-c3ccccc3)c(-c3ccccc3)o2)cc1
emission maximum (in Cc1ccccc1): 381 nm

emission maximum (in ClC(Cl)Cl): 442 nm
Compound: CCCCCCc1cc2c3cscc3c3cc(CCCCCC)sc3c2s1

Compound: COc1ccc(/C=C/C=C/C=C/c2ccc([N+](=O)[O-])cc2)cc1
emission maximum (in C1CCOC1): 611 nm
emission maximum (in C1COCCO1): 565 nm
emission maximum (in CC1CCCCC1): 485 nm
emission maximum (in CC#N): 740 nm
emission maximum (in CO): 690 nm
emission maximum (in CS(C)=O): 744 nm
emission maximum (in Cc1ccccc1): 541 nm
emission maximum (in ClC(Cl)Cl): 681 nm
emission maximum (in ClCCl): 694 nm

emission maximum (in ClCCl): 605 nm
Compound: CN(C)c1ccc(C#Cc2cc(C#Cc3ccc(C(F)(F)F)cc3)c3ccc4c(C#Cc5ccc(N(C)C)cc5)cc(C#Cc5ccc(C(F)(F)F)cc5)c5ccc2c3c45)cc1

emission maximum (in ClC(Cl)Cl): 734 nm
Compound: COc1ccc2c(c1)CCc1c(-c3ccccc3)c3n(c1-2)[B-](F)(F)[N+]1=C2C(=C(c4ccccc4)C1=N3)CCc1ccccc12

Compound: CCN(CC)c1cccc2c1ccc1c(=O)oc(-c3ccc(C(F)(F)F)cc3)cc12
emission maximum (in CC(C)=O): 604 nm
emission maximum (in CCCCCC): 469 nm
emission maximum (in CCCCCCCCO): 561 nm
emission maximum (in CCCCO): 578 nm
emission maximum (in CCCO): 587 nm
emission maximum (in CCO): 599 nm
emission maximum (in CCOC(C)=O): 568 nm
emission maximum (in CN(C)C=O): 613 nm
emission maximum (in CO): 604 nm
emission maximum (in ClC(Cl)Cl): 542 nm

emission maximum (in ClC(Cl)Cl): 503 nm
Compound: CCCCCCN1C(=O)c2cccc3c(-c4ccc(OC)s4)ccc(c23)C1=O

emission maximum (in CN(C)C=O): 453 nm
emission maximum (in O): 449 nm
Compound: CC[N+]1(CC)CN2C(C)=CC(C)=C(C(=O)[O-])C2=N1

emission maximum (in ClCCl): 576 nm
Compound: COc1ccc2c(c1)CCc1c(-c3ccccc3)c3n(c1-2)[B-](F)(F)[N+]1=C2C=NC=CN2[B-](F)(F)[N+]1=C3

Compound: CN(C)c1ccc2c3c(ccc2c1)C(=O)CCC3
emission maximum (in C1CCCCC1): 407 nm
emission maximum (in CC#N): 448 nm
emission maximum (in CC(C)O): 482 nm
emission maximum (in CCC(C)=O): 443 nm
emission maximum (in CCO): 489 nm
emission maximum (in CCOC(C)=O): 429 nm
emission maximum (in CS(C)=O): 453 nm
emission maximum (in Cc1ccccc1): 417 nm
emission maximum (in ClCCl): 440 nm
emission maximum (in Clc1ccccc1): 423 nm
